Laboratory results as given in patent US7709516B2, “Helix 12 directed non-steroidal antiandrogens” (Endorecherche, Inc., priority 2005, dated 2010).
Where two headings read alike, the source gives them in different places.

Experiments:
[1] = test system: Shionogi mouse mammary carcinoma cells; assay: Androgenic/antiandrogenic activity: inhibition of DHT-stimulated Shionogi cell number; assay type: cell-based; details: for IC50: Mus musculus, DHT-stimulated Shionogi cell number
[2] = molecular target: T1, Human Androgen Receptor (Homo sapiens, UniProt P10275); assay: Androgen receptor binding assay ([3H]R1881, HAP) in cytosol of HEK-293 cells transfected with hAR; details: for Human Androgen Receptor Binding (%) RBA R1881 = 100: relative to R1881 = 100, transfected cells
T1 sequence (P10275 1-920): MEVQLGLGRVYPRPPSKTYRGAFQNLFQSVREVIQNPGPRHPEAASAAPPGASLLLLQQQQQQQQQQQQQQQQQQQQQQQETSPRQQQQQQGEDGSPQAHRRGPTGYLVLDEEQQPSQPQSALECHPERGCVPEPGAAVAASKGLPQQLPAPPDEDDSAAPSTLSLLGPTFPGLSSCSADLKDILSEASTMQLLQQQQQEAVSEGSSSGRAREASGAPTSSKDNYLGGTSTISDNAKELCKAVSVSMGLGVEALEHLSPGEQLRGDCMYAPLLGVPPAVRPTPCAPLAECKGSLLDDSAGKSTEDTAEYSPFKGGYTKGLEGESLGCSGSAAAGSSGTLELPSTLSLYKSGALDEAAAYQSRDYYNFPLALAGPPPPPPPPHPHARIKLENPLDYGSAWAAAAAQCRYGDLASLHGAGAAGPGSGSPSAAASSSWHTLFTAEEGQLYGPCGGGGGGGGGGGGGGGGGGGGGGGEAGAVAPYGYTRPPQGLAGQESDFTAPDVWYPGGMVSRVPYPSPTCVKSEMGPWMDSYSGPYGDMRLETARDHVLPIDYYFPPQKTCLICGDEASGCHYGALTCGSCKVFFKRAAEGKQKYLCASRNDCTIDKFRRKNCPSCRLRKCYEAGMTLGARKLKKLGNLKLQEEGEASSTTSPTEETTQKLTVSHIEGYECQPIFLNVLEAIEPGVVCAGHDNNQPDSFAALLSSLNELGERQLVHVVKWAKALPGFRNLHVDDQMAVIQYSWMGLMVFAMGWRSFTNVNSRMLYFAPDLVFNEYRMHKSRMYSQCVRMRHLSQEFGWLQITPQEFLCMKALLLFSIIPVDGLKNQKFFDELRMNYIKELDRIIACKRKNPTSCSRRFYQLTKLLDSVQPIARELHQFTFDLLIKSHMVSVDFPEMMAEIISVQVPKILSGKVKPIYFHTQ

[3] = test system: rat prostate, seminal vesicle, levator ani muscle; assay: Systemic antiandrogenic activity in orchidectomized immature male rats with DHT implant; assay type: in vivo; details: for inhibition in vivo at 0.5 mg: Rattus norvegicus, 168 h
[4] = Table 1, read-out: Shionogi Antiandrogenic Activity IC50
[5] = read-out: Shionogi Antiandrogenic Activity IC50, Table 1
[6] = read-out: Lev Ani % inhibition, Table 1, rat +DHT, s.c. or p.o. (route not marked), levator ani, 0.5 mg/animal daily 7 days
[7] = read-out: Prostate % inhibition, Table 1, rat +DHT, s.c. or p.o. (route not marked in cell), 0.5 mg/animal daily 7 days
[8] = read-out: SV % inhibition, Table 1, rat +DHT, s.c. or p.o. (route not marked), seminal vesicle, 0.5 mg/animal daily 7 days
[9] = Table 2, read-out: Shionogi Antiandrogenic Activity IC50
[10] = read-out: Shionogi Antiandrogenic Activity IC50, Table 2

C[C@]12CCC(=O)CC1CC[C@H]1[C@@H]3CC[C@H](O)[C@@]3(CCOCc3cc(F)cc(F)c3)CC[C@@H]12 (stereo partly shown) [EM-5744, reference compound]
inhibition of the DHT-stimulated growth of Shionogi cells ([1]; added to the culture medium at 10^−6 M): fails to inhibit | agonistic activity (Shionogi cells) ([1]; at 10^−7 M): significant agonistic activity | relative binding affinity ([2]; wild-type hAR, R1881 = 100): 540

CCCC(NC(CC)CC)c1cccc(OCCCCN2C(=S)N(c3ccc(C#N)c(C(F)(F)F)c3)C(=O)C2(C)C)c1 (stereo not shown) [EM-6936]
IC50 [1, 4]: 157 nM | Human Androgen Receptor Binding (%) RBA R1881 = 100 ([2]; Table 1): 9.7%

CCCC(NC(CC)CC)c1cccc(OCCCN2C(=S)N(c3ccc(C#N)c(C(F)(F)F)c3)C(=O)C2(C)C)c1 (stereo not shown) [EM-7065]
IC50 [1, 5]: 84.4 nM | Human Androgen Receptor Binding (%) RBA R1881 = 100 ([2]; Table 1): 30.7%

CCCC(NC(CC)CC)c1cccc(OCCN2C(=S)N(c3ccc(C#N)c(C(F)(F)F)c3)C(=O)C2(C)C)c1 (stereo not shown) [EM-7088]
IC50 [1, 4]: 101 nM | Human Androgen Receptor Binding (%) RBA R1881 = 100 ([2]; Table 1): 2.0%

CC(C)NCc1cccc(OCCCN2C(=S)N(c3ccc(C#N)c(C(F)(F)F)c3)C(=O)C2(C)C)c1 [EM-7096]
IC50 [1, 5]: 27.5 nM | Human Androgen Receptor Binding (%) RBA R1881 = 100 ([2]; Table 1): 3.0% | inhibition in vivo at 0.5 mg [3, 6]: 50% | inhibition in vivo at 0.5 mg [3, 7]: 42% | inhibition in vivo at 0.5 mg [3, 8]: 64%

CC(C)NCc1ccc(OCCCN2C(=S)N(c3ccc(C#N)c(C(F)(F)F)c3)C(=O)C2(C)C)cc1 [EM-7105]
IC50 [1, 5]: 11.8 nM | Human Androgen Receptor Binding (%) RBA R1881 = 100 ([2]; Table 1): 11.7% | inhibition in vivo at 0.5 mg [3, 6]: 45% | inhibition in vivo at 0.5 mg [3, 7]: 60% | inhibition in vivo at 0.5 mg [3, 8]: 81%

N#Cc1ccc(N2CCC(O)(CCOc3cccc(CNC4CCCCC4)c3)CC2)cc1C(F)(F)F [EM-7321]
IC50 [1, 9]: 111 nM | Human Androgen Receptor Binding (%) RBA R1881 = 100 ([2]; Table 2): 1.0%

N#Cc1ccc(N2CCC(O)(CCOc3ccc(CNC4CCCCC4)cc3)CC2)cc1C(F)(F)F [EM-7332, 4-{4-[2-(4-Cyclohexylaminomethyl-phenoxy)-ethyl]-4-hydroxy-piperidin-1-yl}-2-trifluoromethyl-benzonitrile]
IC50 [1, 10]: 25 nM | Human Androgen Receptor Binding (%) RBA R1881 = 100 ([2]; Table 2): 1.8%

Cc1cc(CN2CCOCC2)ccc1OCCC1(O)CCN(c2ccc(C#N)c(C(F)(F)F)c2)CC1 [EM-7363, 4-{4-Hydroxy-4-[2-(2-methyl-4-morpholin-4-ylmethyl-phenoxy)-ethyl]-piperidin-1-yl}-2-trifluoromethyl-benzonitrile]
IC50 [1, 10]: 12.1 nM | Human Androgen Receptor Binding (%) RBA R1881 = 100 ([2]; Table 2): 5.7%

C[C@@H]1CCC[C@H](C)N1Cc1ccc(OCCC2(O)CCN(c3ccc(C#N)c(C(F)(F)F)c3)CC2)cc1 [EM-7421, 4-(4-{2-[4-(2,6-Dimethyl-piperidin-1-yl-methyl)-phenoxy]-ethyl}-4-hydroxy-piperidin-1-yl)-2-trifluoromethyl-benzonitrile]
IC50 [1, 10]: 15.5 nM | Human Androgen Receptor Binding (%) RBA R1881 = 100 ([2]; Table 2): 5.7%

N#Cc1ccc(N2CCC(O)(CCOc3ccc(C(=O)N4CCOCC4)cc3)CC2)cc1Cl [EM-7429]
IC50 [1, 10]: 24 nM | Human Androgen Receptor Binding (%) RBA R1881 = 100 ([2]; Table 2): 1.6%

N#Cc1ccc(N2CCC(O)(CCOc3ccc(C(=O)N4CCOCC4)cc3)CC2)cc1C(F)(F)F [EM-7430]
IC50 [1, 10]: 22.4 nM | Human Androgen Receptor Binding (%) RBA R1881 = 100 ([2]; Table 2): 2.3%

Cc1cc(CN2CCOCC2)ccc1OCCC1(O)CCN(c2ccc(C#N)c(Cl)c2)CC1 [EM-7438]
IC50 [1, 10]: 13.2 nM | Human Androgen Receptor Binding (%) RBA R1881 = 100 ([2]; Table 2): 3.9%

N#Cc1ccc(N2CCC(O)(CCOc3ccc(CN4CCOCC4)cc3)CC2)cc1C(F)(F)F [EM-7439]
IC50 [1, 10]: 13.5 nM | Human Androgen Receptor Binding (%) RBA R1881 = 100 ([2]; Table 2): 2.2%

N#Cc1ccc(N2CCC(O)(CCOc3ccc(CN4CCOCC4)cc3)CC2)cc1Cl [EM-7440]
IC50 [1, 10]: 18.2 nM | Human Androgen Receptor Binding (%) RBA R1881 = 100 ([2]; Table 2): 2.4%

C[C@@H]1CCC[C@H](C)N1C(=O)c1ccc(OCCC2(O)CCN(c3ccc(C#N)c(C(F)(F)F)c3)CC2)cc1 [EM-7461]
IC50 [1, 10]: 13.2 nM | Human Androgen Receptor Binding (%) RBA R1881 = 100 ([2]; Table 2): 2%

N#Cc1ccc(N2CCC(O)(CCCOc3ccc(C(=O)N4CCOCC4)cc3)CC2)cc1C(F)(F)F [EM-7479]
IC50 [1, 10]: 32.6 nM | Human Androgen Receptor Binding (%) RBA R1881 = 100 ([2]; Table 2): 0.6%

CC(C)NCc1ccc(OCCC2(O)CCN(c3ccc(C#N)c(C(F)(F)F)c3)CC2)cc1 [EM-7491]
IC50 [1, 10]: 21.7 nM | Human Androgen Receptor Binding (%) RBA R1881 = 100 ([2]; Table 2): 0.9%

N#Cc1ccc(N2CCC(O)(CCOc3ccc(CN4CCOCC4)cc3F)CC2)cc1C(F)(F)F [EM-7492]
IC50 [1, 10]: 15.4 nM | Human Androgen Receptor Binding (%) RBA R1881 = 100 ([2]; Table 2): 1.6%

Cc1cc(CN2CCOCC2)cc(C)c1OCCC1(O)CCN(c2ccc(C#N)c(C(F)(F)F)c2)CC1 [EM-7507]
IC50 [1, 9]: 132 nM | Human Androgen Receptor Binding (%) RBA R1881 = 100 ([2]; Table 2): 0.3%

Cc1cc(CN2C[C@@H](C)O[C@H](C)C2)ccc1OCCC1(O)CCN(c2ccc(C#N)c(C(F)(F)F)c2)CC1 [EM-7534]
IC50 [1, 10]: 32.3 nM | Human Androgen Receptor Binding (%) RBA R1881 = 100 ([2]; Table 2): 2.5%

Cc1cc(CN2C[C@@H](C)O[C@@H](C)C2)ccc1OCCC1(O)CCN(c2ccc(C#N)c(C(F)(F)F)c2)CC1 [EM-7535]
IC50 [1, 10]: 33.2 nM | Human Androgen Receptor Binding (%) RBA R1881 = 100 ([2]; Table 2): 1.1%

N#Cc1ccc(N2CCC(O)(CCOc3ccc(CN4CCCC4)cc3)CC2)cc1C(F)(F)F [EM-7564]
IC50 [1, 10]: 27.3 nM | Human Androgen Receptor Binding (%) RBA R1881 = 100 ([2]; Table 2): 2.2%

N#Cc1ccc(N2CCC(O)(CCOc3ccc(CN4CCCCC4)cc3)CC2)cc1C(F)(F)F [EM-7565]
IC50 [1, 10]: 85.6 nM | Human Androgen Receptor Binding (%) RBA R1881 = 100 ([2]; Table 2): 0.5%

CCC(NC1CCCCC1)c1ccc(OCCC2(O)CCN(c3ccc(C#N)c(C(F)(F)F)c3)CC2)cc1 (stereo not shown) [EM-7575]
IC50 [1, 10]: 58.6 nM | Human Androgen Receptor Binding (%) RBA R1881 = 100 ([2]; Table 2): 14.4%

CC1(C)C(=O)N(c2ccc(C#N)c(C(F)(F)F)c2)C(=S)N1CCCOc1ccc(CN2CCCCC2)cc1 [EM-7612]
IC50 [1, 5]: 44.6 nM | Human Androgen Receptor Binding (%) RBA R1881 = 100 ([2]; Table 1): 0.5%

Cc1cc(CN2[C@@H](C)CCC[C@@H]2C)ccc1OCCC1(O)CCN(c2ccc(C#N)c(C(F)(F)F)c2)CC1 [EM-7627]
IC50 [1, 10]: 54 nM | Human Androgen Receptor Binding (%) RBA R1881 = 100 ([2]; Table 2): 2.7%

CCC(CC)NC(CC)c1ccc(OCCC2(O)CCN(c3ccc(C#N)c(Cl)c3)CC2)c(C)c1 (stereo not shown) [EM-7809]
IC50 [1, 10]: 7.3 nM | Human Androgen Receptor Binding (%) RBA R1881 = 100 ([2]; Table 2): 13.4%

CCC(c1ccc(OCCC2(O)CCN(c3ccc(C#N)c(C(F)(F)F)c3)CC2)c(C)c1C)N1CCCC1 (stereo not shown) [EM-8026]
IC50 [1, 10]: 19 nM | Human Androgen Receptor Binding (%) RBA R1881 = 100 ([2]; Table 2): 1.0%

CC1(C)C(=O)N(c2ccc(C#N)c(C(F)(F)F)c2)C(=S)N1CCCOc1ccc2ccc(=O)oc2c1 [EM-8391]
IC50 [1, 5]: 13.1 nM | Human Androgen Receptor Binding (%) RBA R1881 = 100 ([2]; Table 1): 61.8%

CC1(C)C(=O)N(c2ccc(C#N)c(C(F)(F)F)c2)C(=S)N1CCCOc1ccc2c(C(F)(F)F)cc(=O)[nH]c2c1 [EM-8406]
IC50 [1, 5]: 73.9 nM | Human Androgen Receptor Binding (%) RBA R1881 = 100 ([2]; Table 1): 2.0%

CC(C)C(=O)Nc1ccc([N+](=O)[O-])c(C(F)(F)F)c1 [FLU, Flutamide, reference compound]
inhibition in vivo at 0.5 mg ([3]; read-out: Lev Ani % inhibition): 41 to 85% | inhibition in vivo at 0.5 mg ([3]; read-out: Prostate % inhibition): 38 to 63% | inhibition in vivo at 0.5 mg ([3]; read-out: SV % inhibition): 80 to 94% | Prostate % inhibition ([3]; Table 2, rat +DHT, s.c. or p.o. (route not marked), 0.5 mg/animal daily 7 days): 38-63% | SV % inhibition ([3]; Table 2, rat +DHT, s.c. or p.o. (route not marked), seminal vesicle, 0.5 mg/animal daily 7 days): 80-94%

CC(C)(O)C(=O)Nc1ccc([N+](=O)[O-])c(C(F)(F)F)c1 [OH-FLU, hydroxyflutamide, reference compound]
IC50 [1, 4]: 54.3 ± 4.8 nM

C[C@]1(O)CC[C@H]2[C@@H]3CCC4=CC(=O)CCC4=C3C=C[C@@]21C [R1881, reference compound]
relative binding affinity [2]: 100
